ChEMBL document CHEMBL3885881, “DrugMatrix”

Species on record: Rattus norvegicus
Test: DrugMatrix - Regimen: Daily Repeat
Format: toxicity, organism-based, Sprague-Dawley
Set-up: regimen Daily Repeat, gender Male, age 6-8 weeks
Conditions: in vivo, sc, route subcutaneous, […]; for ABSOLUTE BASOPHIL / ABSOLUTE EOSINOPHIL / ABSOLUTE LYMPHOCYTE / ABSOLUTE MONOCYTE / ABSOLUTE SEGMENTED NEUTROPHIL / BASOPHIL / EOSINOPHIL / ERYTHROCYTE COUNT / HEMATOCRIT / HEMOGLOBIN / LEUKOCYTE COUNT / LYMPHOCYTE / MEAN CORPUSCULAR HEMOGLOBIN / MEAN CORPUSCULAR HEMOGLOBIN CONCENTRATION / MEAN CORPUSCULAR VOLUME / MONOCYTE / NEUTROPHIL / NUCLEATED RED BLOOD CELLS / PLATELET COUNT: tissue Blood; for ALANINE AMINOTRANSFERASE / ALBUMIN / ALKALINE PHOSPHATASE / ASPARTATE AMINOTRANSFERASE / BLOOD UREA NITROGEN / CARBON DIOXIDE / CHLORIDE / CHOLESTEROL / CREATINE PHOSPHOKINASE / CREATININE / GLUCOSE / LACTATE DEHYDROGENASE / LIPASE / PHOSPHORUS / POTASSIUM / SODIUM / TOTAL BILIRUBIN / TOTAL PROTEIN / URIC ACID: tissue Plasma
[1] = 7 mg/kg, 72 h, dose level High, time 3 day
[2] = 7 mg/kg, 120 h, dose level High, time 5 day
[3] = 72 h, dose 1.5 mg/Kg, dose level Low, time 3 day
[4] = 120 h, dose 1.5 mg/Kg, dose level Low, time 5 day

For `CC1=C(/C=C/C(C)=C/C=C/C(C)=C/C(=O)O)C(C)(C)CCC1` [TRETINOIN], the “ABSOLUTE BASOPHIL” value [1] was 0 CELLS/uL, the “ABSOLUTE EOSINOPHIL” value [1] was 0 CELLS/uL and the “ABSOLUTE LYMPHOCYTE” value [1] was 16685.33 CELLS/uL. The “ABSOLUTE MONOCYTE” value [1] was 222.33 CELLS/uL, the “ABSOLUTE SEGMENTED NEUTROPHIL” value [1] was 2859 CELLS/uL and the BASOPHIL [1] was 0%. For the same compound, the EOSINOPHIL [1] was 0%, the “ERYTHROCYTE COUNT” value [1] was 5.42 x10E6/uL and the HEMATOCRIT [1] was 34.57%. For the same compound, the HEMOGLOBIN [1] was 12.7 G/DL, the “LEUKOCYTE COUNT” value [1] was 19.77 x10E3/uL and the LYMPHOCYTE [1] was 84%. The “MEAN CORPUSCULAR HEMOGLOBIN” value [1] was 23.43 pg, the “MEAN CORPUSCULAR HEMOGLOBIN CONCENTRATION” value [1] was 36.73 G/DL and the “MEAN CORPUSCULAR VOLUME” value [1] was 63.77 fL. For the same compound, the MONOCYTE [1] was 1%, the NEUTROPHIL [1] was 15% and the “NUCLEATED RED BLOOD CELLS” value [1] was 0 /100WBC. For the same compound, the “PLATELET COUNT” value [1] was 1323.33 x10E3/uL, the “ALANINE AMINOTRANSFERASE” value [1] was 50 u/L and the ALBUMIN [1] was 4.03 G/DL. For the same compound, the “ALKALINE PHOSPHATASE” value [1] was 328.67 u/L, the “ASPARTATE AMINOTRANSFERASE” value [1] was 77.33 u/L and the “BLOOD UREA NITROGEN” value [1] was 15.67 mg/dL. The “CARBON DIOXIDE” value [1] was 15 mmol/L, the CHLORIDE [1] was 103.67 MEQ/L and the CHOLESTEROL [1] was 79 mg/dL. For the same compound, the “CREATINE PHOSPHOKINASE” value [1] was 311.33 u/L, the CREATININE [1] was 0.19 mg/dL and the GLUCOSE [1] was 165.33 mg/dL. The “LACTATE DEHYDROGENASE” value [1] was 120.33 u/L, the LIPASE [1] was 9.67 u/L and the PHOSPHORUS [1] was 13.53 mg/dL. The POTASSIUM [1] was 7.16 MEQ/L, the SODIUM [1] was 147 MEQ/L and the “TOTAL BILIRUBIN” value [1] was 0.2 mg/dL. For the same compound, the “TOTAL PROTEIN” value [1] was 5.97 G/DL, the “URIC ACID” value [1] was 1.5 mg/dL and the “ABSOLUTE BASOPHIL” value [2] was 0 CELLS/uL. The “ABSOLUTE EOSINOPHIL” value [2] was 71.67 CELLS/uL, the “ABSOLUTE LYMPHOCYTE” value [2] was 17691.67 CELLS/uL and the “ABSOLUTE MONOCYTE” value [2] was 531.67 CELLS/uL. The “ABSOLUTE SEGMENTED NEUTROPHIL” value [2] was 3905 CELLS/uL, the BASOPHIL [2] was 0% and the EOSINOPHIL [2] was 0.33%. The “ERYTHROCYTE COUNT” value [2] was 5.84 x10E6/uL, the HEMATOCRIT [2] was 36.1% and the HEMOGLOBIN [2] was 13.37 G/DL. For the same compound, the “LEUKOCYTE COUNT” value [2] was 22.2 x10E3/uL, the LYMPHOCYTE [2] was 79.67% and the “MEAN CORPUSCULAR HEMOGLOBIN” value [2] was 22.9 pg. The “MEAN CORPUSCULAR HEMOGLOBIN CONCENTRATION” value [2] was 37.03 G/DL, the “MEAN CORPUSCULAR VOLUME” value [2] was 61.8 fL and the MONOCYTE [2] was 2.33%. For the same compound, the NEUTROPHIL [2] was 17.67%, the “NUCLEATED RED BLOOD CELLS” value [2] was 0 /100WBC and the “PLATELET COUNT” value [2] was 1087.33 x10E3/uL. For the same compound, the “ALANINE AMINOTRANSFERASE” value [2] was 46.33 u/L, the ALBUMIN [2] was 3.87 G/DL and the “ALKALINE PHOSPHATASE” value [2] was 319.67 u/L. For the same compound, the “ASPARTATE AMINOTRANSFERASE” value [2] was 88 u/L, the “BLOOD UREA NITROGEN” value [2] was 14.67 mg/dL and the “CARBON DIOXIDE” value [2] was 33.33 mmol/L. For the same compound, the CHLORIDE [2] was 103.33 MEQ/L, the CHOLESTEROL [2] was 75.67 mg/dL and the “CREATINE PHOSPHOKINASE” value [2] was 348 u/L. For the same compound, the CREATININE [2] was 0.28 mg/dL, the GLUCOSE [2] was 172.33 mg/dL and the “LACTATE DEHYDROGENASE” value [2] was 105.67 u/L. It also gave an LIPASE [2] of 12 u/L, a PHOSPHORUS [2] of 13.8 mg/dL and a POTASSIUM [2] of 6.84 MEQ/L. The SODIUM [2] was 147.23 MEQ/L, the “TOTAL BILIRUBIN” value [2] was 0.13 mg/dL and the “TOTAL PROTEIN” value [2] was 6.07 G/DL. The “URIC ACID” value [2] was 1.8 mg/dL, the “ABSOLUTE BASOPHIL” value [3] was 0 CELLS/uL and the “ABSOLUTE EOSINOPHIL” value [3] was 41.67 CELLS/uL. For the same compound, the “ABSOLUTE LYMPHOCYTE” value [3] was 10665.33 CELLS/uL, the “ABSOLUTE MONOCYTE” value [3] was 55.67 CELLS/uL and the “ABSOLUTE SEGMENTED NEUTROPHIL” value [3] was 2104 CELLS/uL. For the same compound, the BASOPHIL [3] was 0%, the EOSINOPHIL [3] was 0.33% and the “ERYTHROCYTE COUNT” value [3] was 4.74 x10E6/uL. The HEMATOCRIT [3] was 30.27%, the HEMOGLOBIN [3] was 11.93 G/DL and the “LEUKOCYTE COUNT” value [3] was 12.87 x10E3/uL. The LYMPHOCYTE [3] was 83.67%, the “MEAN CORPUSCULAR HEMOGLOBIN” value [3] was 25.23 pg and the “MEAN CORPUSCULAR HEMOGLOBIN CONCENTRATION” value [3] was 39.47 G/DL. The “MEAN CORPUSCULAR VOLUME” value [3] was 63.87 fL, the MONOCYTE [3] was 0.33% and the NEUTROPHIL [3] was 15.67%. For the same compound, the “NUCLEATED RED BLOOD CELLS” value [3] was 0 /100WBC, the “PLATELET COUNT” value [3] was 1093.33 x10E3/uL and the “ALANINE AMINOTRANSFERASE” value [3] was 51 u/L. For the same compound, the ALBUMIN [3] was 4.23 G/DL, the “ALKALINE PHOSPHATASE” value [3] was 460.67 u/L and the “ASPARTATE AMINOTRANSFERASE” value [3] was 100 u/L. The “BLOOD UREA NITROGEN” value [3] was 15.67 mg/dL, the “CARBON DIOXIDE” value [3] was 22.33 mmol/L and the CHLORIDE [3] was 107.67 MEQ/L. For the same compound, the CHOLESTEROL [3] was 98.33 mg/dL, the “CREATINE PHOSPHOKINASE” value [3] was 387.67 u/L and the CREATININE [3] was 0.23 mg/dL. The GLUCOSE [3] was 164.33 mg/dL, the “LACTATE DEHYDROGENASE” value [3] was 522.33 u/L and the LIPASE [3] was 11.33 u/L. For the same compound, the PHOSPHORUS [3] was 12.5 mg/dL, the POTASSIUM [3] was 6.67 MEQ/L and the SODIUM [3] was 150.27 MEQ/L. For the same compound, the “TOTAL BILIRUBIN” value [3] was 0.27 mg/dL, the “TOTAL PROTEIN” value [3] was 6.27 G/DL and the “URIC ACID” value [3] was 1.97 mg/dL. The “ABSOLUTE BASOPHIL” value [4] was 0 CELLS/uL, the “ABSOLUTE EOSINOPHIL” value [4] was 0 CELLS/uL and the “ABSOLUTE LYMPHOCYTE” value [4] was 9182.33 CELLS/uL. The “ABSOLUTE MONOCYTE” value [4] was 21 CELLS/uL, the “ABSOLUTE SEGMENTED NEUTROPHIL” value [4] was 1630 CELLS/uL and the BASOPHIL [4] was 0%. The EOSINOPHIL [4] was 0%, the “ERYTHROCYTE COUNT” value [4] was 5.54 x10E6/uL and the HEMATOCRIT [4] was 34.87%. The HEMOGLOBIN [4] was 12.9 G/DL, the “LEUKOCYTE COUNT” value [4] was 10.83 x10E3/uL and the LYMPHOCYTE [4] was 85%. For the same compound, the “MEAN CORPUSCULAR HEMOGLOBIN” value [4] was 23.27 pg, the “MEAN CORPUSCULAR HEMOGLOBIN CONCENTRATION” value [4] was 37 G/DL and the “MEAN CORPUSCULAR VOLUME” value [4] was 62.9 fL. The MONOCYTE [4] was 0.33%, the NEUTROPHIL [4] was 14.67% and the “NUCLEATED RED BLOOD CELLS” value [4] was 0 /100WBC. The “PLATELET COUNT” value [4] was 981.67 x10E3/uL, the “ALANINE AMINOTRANSFERASE” value [4] was 52 u/L and the ALBUMIN [4] was 3.9 G/DL. For the same compound, the “ALKALINE PHOSPHATASE” value [4] was 336.33 u/L, the “ASPARTATE AMINOTRANSFERASE” value [4] was 91 u/L and the “BLOOD UREA NITROGEN” value [4] was 16.33 mg/dL. For the same compound, the “CARBON DIOXIDE” value [4] was 24.33 mmol/L, the CHLORIDE [4] was 107 MEQ/L and the CHOLESTEROL [4] was 79 mg/dL. The “CREATINE PHOSPHOKINASE” value [4] was 270.33 u/L, the CREATININE [4] was 0.17 mg/dL and the GLUCOSE [4] was 180.33 mg/dL. The “LACTATE DEHYDROGENASE” value [4] was 147.67 u/L, the LIPASE [4] was 10.33 u/L and the PHOSPHORUS [4] was 14.17 mg/dL. The POTASSIUM [4] was 6.48 MEQ/L, the SODIUM [4] was 147.97 MEQ/L and the “TOTAL BILIRUBIN” value [4] was 0.23 mg/dL. For the same compound, the “TOTAL PROTEIN” value [4] was 6.07 G/DL and the “URIC ACID” value [4] was 2.07 mg/dL.
